Assay [1] has as its system A549. The assay is described as follows: Cytotoxicity against human A549 cells assessed as cell survival at 200 uM after 24 hrs by MTT assay relative to control. As to conditions: A549, 24 h, read-out: Activity. In kind it is functional. (Tetrazolium assays rely on reduction of a dye to a coloured formazan, in cell work by metabolically active cells.)
Assay [2] relates to dengue virus type 2. Description: Antiviral activity against DENV2 infected in African green monkey Vero cells assessed as reduction in virus titer after 72 hrs by naphthol blue-black dye based assay. In kind it is functional, organism-based.
Assay [3] has as its system dengue virus type 2. The assay is described as follows: Antiviral activity against DENV2 infected in BHK-21 incubated for 2 hrs followed by compound washout and subsequent replating by plaque-forming assay. The following applies: BHK-21, 2 h. In kind it is functional, organism-based.
For assay [4], the system named is dengue virus type 4. Description: Antiviral activity against DENV4 infected in BHK cells assessed as reduction in viral replication. In kind it is functional, organism-based.
The test system of assay [5] is dengue virus type 3. The assay is described as follows: Antiviral activity against DENV3 infected in BHK cells assessed as reduction in viral replication. In kind it is functional, organism-based.
Assay [6] has as its system dengue virus type 2. Description: Antiviral activity against DENV2 infected in BHK cells assessed as reduction in viral replication. In kind it is functional, organism-based.
The subject of assay [7] is dengue virus type 1. Description: Antiviral activity against DENV1 infected in BHK cells assessed as reduction in viral replication. In kind it is functional, organism-based.
Assay [8] concerns the target Nonstructural protein 5 (Dengue virus, UniProt V5TFZ2). Description: Inhibition of recombinant N-terminal His6-tagged DENV2 NGC NS5 RNA dependent RNA polymerase. Also on record: species or system dengue virus type 2.
Assay [9] has as its system dengue virus type 2. The assay is described as follows: Antiviral activity against DENV2 infected in human Huh7 cells up to 72 hrs by immunofluorescence analysis. In kind it is functional, organism-based. As to conditions: Huh-7, 72 h.
Assay [10] deals with Dengue virus. Description: Antiviral activity against Dengue virus infected in human HepG2 cells assessed as viral production at 150 uM after 1 hrs by flow cytometry analysis relative to control. In kind it is functional. Background: A flow cytometer gives signals particle by particle.
Assay [11] deals with dengue virus type 1. The assay is described as follows: Antiviral activity against DENV1 infected in human Huh7 cells assessed as reduction in viral yield after 48 hrs by MTT assay. In kind it is functional, organism-based. The following applies: Huh-7, 48 h, pooled result: one value given for 4 cell lines, strains, targets or settings.
The test system of assay [12] is dengue virus type 2. Description: Antiviral activity against DENV2 New Guinea C/PUO-218 by qRT-PCR analysis. In kind it is functional, organism-based. On the technique in general: Quantitative PCR measures a nucleic acid by following its amplification.
Assay [13] concerns dengue virus type 2. The assay is described as follows: Antiviral activity against DENV2 infected in human Huh7 cells assessed as reduction in virus yield by qRT-PCR analysis. In kind it is functional, organism-based. As to conditions: Huh-7.
The test system of assay [14] is dengue virus type 2. Description: Antiviral activity against DENV2 16681 infected in human Huh7 cells by luciferase reporter gene assay. In kind it is functional, organism-based. As to conditions: Dengue virus, 16681, Huh-7.
Assay [15] relates to dengue virus type 2. The assay is described as follows: Antiviral activity against DENV2 infected in human Huh-7 cells. In kind it is functional, organism-based.
The test system of assay [16] is dengue virus type 2. The assay is described as follows: Antiviral activity against DENV2 infected in BHK-21 assessed as reduction in viral plaque formation by crystal violet staining based assay. In kind it is functional, organism-based.
Assay [17] has as its system dengue virus type 2. Description: Antiviral activity against DENV2 16681 infected in human Huh7 cells after 3 days by RT-qPCR analysis. In kind it is functional, organism-based. The following applies: Dengue virus, 16681, Huh-7, 72 h.
Assay [18] deals with T1, Genome polyprotein (dengue virus type 2, UniProt P29990). Description: Inhibition of DENV2 NS2B-NS3 serine protease expressed in human Huh7 cells after 3 days by Phospha-Light SEAP reporter gene Assay. In kind it is cell-based.
Assay [19] deals with dengue virus type 2. The assay is described as follows: Antiviral activity against DENV2 infected in human Huh-7 cells assessed as reduction in viral infection. In kind it is functional, organism-based.
In assay [20] the target is T1, Genome polyprotein. Description: Inhibition of His-tagged DENV2 NS2B-NS3 serine protease.
Assay [21] addresses T1, Genome polyprotein. The assay is described as follows: Inhibition of His-tagged DENV2 NS2B-NS3 serine protease expressed in baculovirus infected sf9 cells.
Assay [22] concerns the target T1, Genome polyprotein. The assay is described as follows: Inhibition of DENV2 NS2B-NS3 serine protease using Boc-GRR-AMC as substrate after 30 mins.
Assay [23] has as its system dengue virus type 2. The assay is described as follows: Antiviral activity against DENV2 […] infected in African green monkey Vero cells by qRT-PCR analysis. In kind it is functional, organism-based.

Experimental findings from ChEMBL document CHEMBL4396891, “Recent update on anti-dengue drug discovery” (Eur J Med Chem, 2019) are described below.

The structures appear in SMILES notation.

What is called IC50 is the concentration that inhibits the measured activity by half. One may read the EC50 as the concentration at which the effect is half-maximal.

Sequence of Nonstructural protein 5 (V5TFZ2 whole entry): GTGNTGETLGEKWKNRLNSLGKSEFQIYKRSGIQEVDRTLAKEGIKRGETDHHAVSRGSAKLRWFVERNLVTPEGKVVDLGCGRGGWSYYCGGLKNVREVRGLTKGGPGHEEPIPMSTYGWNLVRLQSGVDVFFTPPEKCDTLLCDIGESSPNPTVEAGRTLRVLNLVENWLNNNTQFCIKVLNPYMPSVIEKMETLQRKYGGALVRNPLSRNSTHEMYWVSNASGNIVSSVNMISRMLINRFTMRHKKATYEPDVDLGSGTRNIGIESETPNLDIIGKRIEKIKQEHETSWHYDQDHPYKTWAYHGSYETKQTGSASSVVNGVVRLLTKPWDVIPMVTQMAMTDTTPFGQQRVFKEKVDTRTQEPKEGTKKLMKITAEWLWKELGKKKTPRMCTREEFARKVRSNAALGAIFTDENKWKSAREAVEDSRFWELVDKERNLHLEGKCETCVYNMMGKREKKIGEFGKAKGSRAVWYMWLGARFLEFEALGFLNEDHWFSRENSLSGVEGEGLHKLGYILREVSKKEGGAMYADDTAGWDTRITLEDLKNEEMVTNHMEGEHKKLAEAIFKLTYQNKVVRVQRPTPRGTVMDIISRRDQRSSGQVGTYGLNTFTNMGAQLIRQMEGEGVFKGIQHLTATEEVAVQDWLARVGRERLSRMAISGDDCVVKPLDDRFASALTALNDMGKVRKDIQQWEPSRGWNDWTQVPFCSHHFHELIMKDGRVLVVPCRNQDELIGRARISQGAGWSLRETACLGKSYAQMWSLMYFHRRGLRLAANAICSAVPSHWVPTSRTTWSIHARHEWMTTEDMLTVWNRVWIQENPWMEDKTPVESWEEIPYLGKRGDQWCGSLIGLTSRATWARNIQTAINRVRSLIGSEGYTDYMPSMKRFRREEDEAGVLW

As for `CC1(C)[C@@H](OC(=O)CCC(=O)O)CC[C@]2(C)[C@H]3C(=O)C=C4[C@@H]5C[C@@](C)(C(=O)O)CC[C@]5(C)CC[C@@]4(C)[C@]3(C)CC[C@@H]12` [CARBENOXOLONE], the viability at 200 µM in assay [1] amounted to 80%. For the compound `C[C@H]1c2cccc(O)c2C(=O)C2=C(O)[C@]3(O)C(=O)C(C(N)=O)=C(O)[C@@H](N(C)C)[C@@H]3[C@@H](O)[C@@H]21` [DOXYCYCLINE], the half-inhibitory concentration (IC50) in assay [2] was 50 µM. `CCN(CCO)CCCC(C)Nc1ccnc2cc(Cl)ccc12` (stereo not drawn) [HYDROXYCHLOROQUINE] yielded an IC50 in assay [3] of 10.1 µM. For the compound `O=C(NO)c1ncc(CS(=O)(=O)c2ccccc2)c(CO)c1O`, the half-inhibitory concentration (IC50) in assay [4] lay within 2.2 to 2.8 µM; in [8], 5 to 6.7 µM. Also, the EC50 in [5], in assay [6] and in assay [7] was 2.2 to 2.8 µM throughout. As to `CC(=O)O[C@H]1C[C@H](O[C@H]2[C@@H](O)C[C@H](O[C@H]3[C@@H](O)C[C@H](O[C@H]4CC[C@@]5(C)[C@H](CC[C@@H]6[C@@H]5C[C@@H](O)[C@]5(C)[C@@H](C7=CC(=O)OC7)CC[C@]65O)C4)O[C@@H]3C)O[C@@H]2C)O[C@H](C)[C@H]1O[C@@H]1O[C@H](CO)[C@@H](O)[C@H](O)[C@H]1O` [LANATOSIDE C], in assay [9], the IC50 was 0.19 µM. With `C=C[C@H]1CN2CC[C@H]1C[C@H]2[C@H](O)c1ccnc2ccc(OC)cc12` [QUININE], in assay [10], the Activity is on record as 19%. Turning to `O=C1[C@H](CC[C@H](O)c2ccc(F)cc2)[C@@H](c2ccc(O)cc2)N1c1ccc(F)cc1` [EZETIMIBE], in assay [11], the half-inhibitory concentration (IC50) is 13.1 µM. With `CC(C)OC(=O)[C@H](C)N[P@](=O)(OC[C@H]1O[C@@H](n2ccc(=O)[nH]c2=O)[C@](C)(F)[C@@H]1O)Oc1ccccc1` [SOFOSBUVIR], the EC50 was 0.4 µM in assay [12] and 4.9 µM in assay [13]. For `C/C(=C\[C@H](C)C(=O)C[C@H](O)CC1CC(=O)NC(=O)C1)[C@@H]1OC(=O)/C=C/CC/C=C/C=C\[C@@H]1C` [LACTIMIDOMYCIN], the EC50 in assay [14] and in [15] was 0.4 µM each time.

In the case of `O=C(Nc1ccc([N+](=O)[O-])cc1Cl)c1cc(Cl)ccc1O` [NICLOSAMIDE], in assay [16], the half-inhibitory concentration (IC50) was 10 µM. `COC(=O)c1[nH]c2ccc(Cl)cc2c1C(=O)c1cc(OC)c(O)c(OC)c1`: the concentration giving a half-maximal response (EC50) in [17] and in [19] was 4.6 µM throughout. Further, the concentration for half-maximal inhibition (IC50) in [18] was 6.7 µM; in assay [20], 4.7 µM; in assay [21] it was 6.7 µM; in [22] it was 4.7 µM. In assay [23], `CC[C@@H]([C@H](C)O)n1ncn(-c2ccc(N3CCN(c4ccc(OC[C@@H]5CO[C@@](Cn6cncn6)(c6ccc(F)cc6F)C5)cc4)CC3)cc2)c1=O` [POSACONAZOLE] had an EC50 of 4.1 µM.
